Measurements: patent US20200239530A1, “COMPOUNDS AND METHODS OF MODULATING PROTEIN DEGRADATION” (Vividion Therapeutics, Inc., priority 2017, published 2020)

Experiments:
[1] = target: T1, ALDH18A1 Delta-1-pyrroline-5-carboxylate synthase (Homo sapiens, UniProt P54886); test: Cysteine liganding, probe competition; assay type: binding
T1 construct: Cells were resuspended in cold PBS on ice and sonicated with a probe sonicator to achieve lysis; endogenous in cells
T1 sequence (P54886 1-795): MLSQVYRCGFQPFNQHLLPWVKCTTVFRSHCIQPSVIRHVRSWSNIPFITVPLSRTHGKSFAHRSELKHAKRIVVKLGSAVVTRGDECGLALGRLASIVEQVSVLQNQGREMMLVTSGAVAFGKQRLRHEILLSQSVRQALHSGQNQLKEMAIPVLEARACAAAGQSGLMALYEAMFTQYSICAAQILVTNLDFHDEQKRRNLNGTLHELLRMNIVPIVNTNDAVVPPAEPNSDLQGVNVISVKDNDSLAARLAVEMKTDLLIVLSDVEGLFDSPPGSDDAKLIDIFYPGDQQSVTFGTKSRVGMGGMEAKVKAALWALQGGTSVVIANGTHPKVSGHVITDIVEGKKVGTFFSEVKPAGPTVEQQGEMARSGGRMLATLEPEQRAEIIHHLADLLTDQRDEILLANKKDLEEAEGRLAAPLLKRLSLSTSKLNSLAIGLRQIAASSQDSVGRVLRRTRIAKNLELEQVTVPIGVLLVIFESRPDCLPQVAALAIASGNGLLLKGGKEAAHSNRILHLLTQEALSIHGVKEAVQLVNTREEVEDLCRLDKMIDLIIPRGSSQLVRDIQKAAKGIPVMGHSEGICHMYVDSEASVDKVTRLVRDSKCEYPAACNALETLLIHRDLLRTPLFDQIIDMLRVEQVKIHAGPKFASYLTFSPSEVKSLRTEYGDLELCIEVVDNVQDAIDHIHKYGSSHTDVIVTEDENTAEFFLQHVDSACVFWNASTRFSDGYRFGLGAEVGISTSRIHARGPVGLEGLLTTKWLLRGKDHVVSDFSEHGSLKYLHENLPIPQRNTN
How it was run: (§1)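 Probe competition in native proteome: 5 mg/ml lysate, compound 1 hr 25° C, then desthiobiotin iodoacetamide (10 mM stock) 1 hr 25° C; acetone ppt, urea/DTT reduction, iodoacetamide alkylation, trypsin, streptavidin pull-down.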

[2] = target: T2, TRIM56 E3 ubiquitin-protein ligase TRIM56 (Homo sapiens, UniProt Q9BRZ2); test: Cysteine liganding, probe competition; assay type: binding
T2 construct: Cells were resuspended in cold PBS on ice and sonicated with a probe sonicator to achieve lysis; endogenous in cells
T2 sequence (Q9BRZ2 1-755): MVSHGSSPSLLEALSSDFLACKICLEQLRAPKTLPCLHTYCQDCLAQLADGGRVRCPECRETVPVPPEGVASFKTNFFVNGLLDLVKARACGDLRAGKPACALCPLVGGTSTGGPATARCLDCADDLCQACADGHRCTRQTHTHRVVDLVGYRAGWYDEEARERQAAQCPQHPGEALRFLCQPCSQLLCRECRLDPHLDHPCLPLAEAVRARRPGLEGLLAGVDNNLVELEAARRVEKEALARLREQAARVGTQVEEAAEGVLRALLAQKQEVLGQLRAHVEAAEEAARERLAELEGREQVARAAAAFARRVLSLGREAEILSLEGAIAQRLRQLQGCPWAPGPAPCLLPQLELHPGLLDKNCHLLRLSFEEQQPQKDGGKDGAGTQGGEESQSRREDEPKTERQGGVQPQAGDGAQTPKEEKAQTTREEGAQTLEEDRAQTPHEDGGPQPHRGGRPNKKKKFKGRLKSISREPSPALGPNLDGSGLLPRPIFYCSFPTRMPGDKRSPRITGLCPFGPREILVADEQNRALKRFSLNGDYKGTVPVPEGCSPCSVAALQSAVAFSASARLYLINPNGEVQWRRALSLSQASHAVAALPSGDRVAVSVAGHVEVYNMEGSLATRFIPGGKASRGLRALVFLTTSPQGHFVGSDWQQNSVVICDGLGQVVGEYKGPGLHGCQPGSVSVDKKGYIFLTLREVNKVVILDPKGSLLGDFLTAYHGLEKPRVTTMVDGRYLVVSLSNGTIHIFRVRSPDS
How it was run: as §1

| Structure (SMILES) | Liganded ([1]; ALDH18A1 Res# 612, uniprot P54886) | Liganded ([2]; TRIM56 Res# 338, uniprot Q9BRZ2) | 100 Max ([1]; uniprot P54886) | 100 ave ([1]; uniprot P54886) | 500 Max ([1]; uniprot P54886) | 500 ave ([1]; uniprot P54886) | KB03_500 uM_percent_inhibition ([2]; 500 uM, UniProt Q9BRZ2) [%] | Liganded ([2]; TRIM56 Res# 36, uniprot Q9BRZ2) | 500 Max ([2]; uniprot Q9BRZ2) | 500 ave ([2]; uniprot Q9BRZ2) |
| --- | --- | --- | --- | --- | --- | --- | --- | --- | --- | --- |
| COc1ccc2c(c1)CCCN2C(=O)CCl [KB02] | YES | YES | – | – | – | – | – | – | – | – |
| O=C(CCl)Nc1cc(C(F)(F)F)cc(C(F)(F)F)c1 [KBO3] | – | – | 34.21 | 13.91 | 66.31 | 66.23 | 93 | YES | 78.3 | 78.3 |
